Measured values reported in US6274715A, “Tricyclic erythromycin derivatives” (priority 1997, dated 2001).
≈ marks a conversion by molar mass, not a printed value.

How the values were obtained:
Format in all cases: cell-based
STR[…] 508 = experiment: In vitro antibacterial activity, MIC, BHI agar dilution; settings: S. agalactiae CMX 508, unit assumed
In short: (§1)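 BHI agar dilution: twelve plates with successive compound dilutions, inoculated by replicator with 1:100 culture dilutions (1:10 for slow growers such as Micrococcus and Streptococcus), 20 to 24 hours at 35-37° C. MIC was the lowest concentration giving no growth, slight haze or sparse isolated colonies versus drug-free control; erythromycin A as class reference.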

M[…] ATCC 9341 = experiment: as above; settings: M. luteus ATCC 9341, unit assumed
In short: as §1

M[…] ATCC 4698 = experiment: as above; settings: M. luteus ATCC 4698, unit assumed
In short: as §1

EN[…] ATCC 8043 = experiment: as above; settings: E. faecium ATCC 8043, unit assumed
In short: as §1

ESCHERICHIA COLI DC-2 = experiment: as above; settings: E. coli DC-2, unit assumed
[1] = tested on: STREPTOCOCCUS PYOGENES PIU 2548; experiment: as above; settings: S. pyogenes PIU 2548, unit assumed
[2] = tested on: STAPHYLOCOCCUS AUREUS 1775; experiment: as above; settings: S. aureus 1775, unit assumed
[3] = tested on: ACINETOBACTER CALCOACETICUS CMX 669; experiment: as above; settings: A. calcoaceticus CMX 669, unit assumed
[4] = tested on: PSEUDOMONAS AERUGINOSA 5007; experiment: as above; settings: P. aeruginosa 5007, unit assumed
[5] = tested on: STAPHYLOCOCCUS AUREUS ATCC 6538P; experiment: as above; settings: S. aureus ATCC 6538P, 35-37° C., 20 to 24 hours, unit assumed
ESCHERICHIA COLI JUHL = settings: E. coli JUHL; BHI agar; unit assumed
[6] = tested on: STAPHYLOCOCCUS AUREUS CMX 553; experiment: In vitro antibacterial activity, MIC, BHI agar dilution; settings: S. aureus CMX 553, unit assumed
[7] = tested on: PSEUDOMONAS AERUGINOSA K799/61; experiment: as above; settings: P. aeruginosa K799/61, unit assumed
ESCHERICHIA COLI KNK 437 = settings: E. coli KNK 437; BHI agar; unit assumed
PSEUDOMONAS CEPACIA 296I = experiment: In vitro antibacterial activity, MIC, BHI agar dilution; settings: P. cepacia 296I, unit assumed
[8] = tested on: PSEUDOMONAS AERUGINOSA BMH10; experiment: as above; settings: P. aeruginosa BMH10, unit assumed
[9] = tested on: KLEBSIELLA PNEUMONIAE ATCC 8045; experiment: as above; settings: K. pneumoniae ATCC 8045, unit assumed
[10] = tested on: PSEUDOMONAS AERUGINOSA DPHD-5263; experiment: as above; settings: P. aeruginosa DPHD-5263, unit assumed
[11] = tested on: STAPHYLOCOCCUS EPIDERMIDIS 3519; settings: S. epidermidis 3519; BHI agar; unit assumed
[12] = tested on: MYCOBACTERIUM SMEGMATIS ATCC 114; experiment: In vitro antibacterial activity, MIC, BHI agar dilution; settings: M. smegmatis ATCC 114, unit assumed
ESCHERICHIA COLI H560 = experiment: as above; settings: E. coli H560, unit assumed
[13] = tested on: STAPHYLOCOCCUS AUREUS A-5278; experiment: as above; settings: S. aureus A-5278, unit assumed
[14] = tested on: PSEUDOMONAS AERUGINOSA K799/WT; experiment: as above; settings: P. aeruginosa K799/WT, unit assumed
[15] = tested on: STAPHYLOCOCCUS AUREUS A5177; experiment: as above; settings: S. aureus A5177, unit assumed
[16] = tested on: ENTEROBACTER AEROGENES ATCC 13048; experiment: as above; settings: E. aerogenes ATCC 13048, unit assumed
[17] = tested on: STAPHYLOCOCCUS AUREUS CMX 642A; experiment: as above; settings: S. aureus CMX 642A, unit assumed
[18] = tested on: STREPTOCOCCUS BOVIS A-5169; experiment: as above; settings: S. bovis A-5169, unit assumed
[19] = tested on: STREPTOCOCCUS PYOGENES EES61; experiment: as above; settings: S. pyogenes EES61, unit assumed
[20] = tested on: STAPHYLOCOCCUS AUREUS NCTC10649M; experiment: as above; settings: S. aureus NCTC10649M, unit assumed
[21] = tested on: PROVIDENCIA STUARTII CMX 640; settings: P. stuartii CMX 640; BHI agar; unit assumed
CANDIDA ALBICANS CCH 442 = experiment: In vitro antibacterial activity, MIC, BHI agar dilution; settings: C. albicans CCH 442, unit assumed
H. Influenza Dill AMP R = experiment: In vitro antibacterial activity against H. Influenza Dill AMP R, MIC; settings: separate assay, unit assumed
Experimental: Representative compounds of the present invention were assayed in vitro for antibacterial activity as follows: Twelve petri dishes containing successive aqueous dilutions of the test compound mixed with 10 mL of sterilized Brain Heart Infusion (BHI) agar (Difco 0418-01-5) were prepared. Each plate was inoculated with 1:100 (or 1:10 for slow-growing strains, such as Micrococcus and Streptococcus) dilutions of up to 32 different microorganisms, using a Steers replicator block. The inoculated plates were incubated at 35-37° C. for 20 to 24 hours. In addition, a control plate, using BHI agar containing no test compound, was prepared and incubated at the beginning and end of each test.
After incubation, each plate was visually inspected. The minimum inhibitory concentration (MIC) was defmed as the lowest concentration of drug yielding no growth, a slight haze, or sparsely isolated colonies on the inoculum spot as compared to the growth control.
In a separate assay representative compounds of the invention were assayed in vitro for antibacterial activity against the H. Influenza Dill AMP R strain, according to the protocol described above.

[22] = tested on: PSEUDOMONAS AERUGINOSA DPHD-2862; experiment: In vitro antibacterial activity, MIC, BHI agar dilution; settings: P. aeruginosa DPHD-2862, unit assumed
ESCHERICHIA COLI SS = experiment: as above; settings: E. coli SS, unit assumed
[23] = tested on: STREPTOCOCCUS PYOGENES 930; experiment: as above; settings: S. pyogenes 930, unit assumed

SMILES | MIC (STR[…] 508) | MIC (M[…] ATCC 9341) | MIC (M[…] ATCC 4698) | MIC (EN[…] ATCC 8043) | MIC (ESCHERICHIA COLI DC-2) | MIC [1] | MIC [2] | MIC [3] | MIC [4] | MIC [5] | MIC (ESCHERICHIA COLI JUHL) | MIC [6] | MIC [7] | MIC (ESCHERICHIA COLI KNK 437) | MIC (PSEUDOMONAS CEPACIA 296I) | MIC [8] | MIC [9] | MIC [10] | MIC [11] | MIC [12] | other results
CC[C@H]1OC(=O)[C@H](C)C(=O)[C@H](C)[C@@H](O[C@@H]2O[C@H](C)C[C@H](N(C)C)[C@H]2O)[C@](C)(OC)C[C@@H](C)C2=N[C@@H]3CNC[C@@H]3N3C(=O)O[C@@]1(C)[C@H]3[C@H]2C [Example 19] | 0.05 µg/mL (≈ 0.0737 µM) | 0.1 µg/mL (≈ 0.147 µM) | 0.2 µg/mL (≈ 0.295 µM) | 0.05 µg/mL (≈ 0.0737 µM) | 6.2 µg/mL (≈ 9.13 µM) | 0.78 µg/mL (≈ 1.15 µM) | > 100 µg/mL | 6.2 µg/mL (≈ 9.13 µM) | > 100 µg/mL | 0.39 µg/mL (≈ 0.574 µM) | 12.5 µg/mL (≈ 18.4 µM) | 0.39 µg/mL (≈ 0.574 µM) | 0.39 µg/mL (≈ 0.574 µM) | 6.2 µg/mL (≈ 9.13 µM) | > 100 µg/mL | 50 µg/mL (≈ 73.7 µM) | 12.5 µg/mL (≈ 18.4 µM) | > 100 µg/mL | 0.39 µg/mL (≈ 0.574 µM) | 3.1 µg/mL (≈ 4.57 µM) | MIC (ESCHERICHIA COLI H560): 3.1 µg/mL (≈ 4.57 µM); MIC [13]: > 100 µg/mL; MIC [14]: > 100 µg/mL; MIC [15]: 0.39 µg/mL (≈ 0.574 µM); MIC [16]: 12.5 µg/mL (≈ 18.4 µM); MIC [17]: 0.39 µg/mL (≈ 0.574 µM); MIC [18]: 0.005 µg/mL (≈ 0.00737 µM); MIC [19]: 0.05 µg/mL (≈ 0.0737 µM); MIC [20]: 0.39 µg/mL (≈ 0.574 µM); MIC [21]: > 100 µg/mL; MIC (CANDIDA ALBICANS CCH 442): > 100 µg/mL; MIC (H. Influenza Dill AMP R): 16 µg/mL (≈ 23.6 µM); MIC [22]: > 100 µg/mL; MIC (ESCHERICHIA COLI SS): 0.2 µg/mL (≈ 0.295 µM); MIC [23]: > 100 µg/mL
CC[C@H]1OC(=O)[C@H](C)C(=O)[C@H](C)[C@@H](O[C@@H]2O[C@H](C)C[C@H](N(C)C)[C@H]2O)[C@](C)(OC)C[C@@H](C)C2=NC[C@H](CCCc3ccccc3)N3C(=O)O[C@@]1(C)[C@H]3[C@H]2C [Example 40] | 0.05 µg/mL (≈ 0.0661 µM) | 0.05 µg/mL (≈ 0.0661 µM) | 0.39 µg/mL (≈ 0.516 µM) | 0.05 µg/mL (≈ 0.0661 µM) | 100 µg/mL (≈ 132 µM) | 0.2 µg/mL (≈ 0.265 µM) | > 100 µg/mL | 50 µg/mL (≈ 66.1 µM) | > 100 µg/mL | 0.78 µg/mL (≈ 1.03 µM) | > 100 µg/mL | 0.78 µg/mL (≈ 1.03 µM) | 0.78 µg/mL (≈ 1.03 µM) | > 100 µg/mL | > 100 µg/mL | > 100 µg/mL | > 100 µg/mL | > 100 µg/mL | 0.39 µg/mL (≈ 0.516 µM) | 0.39 µg/mL (≈ 0.516 µM) | MIC (ESCHERICHIA COLI H560): 25 µg/mL (≈ 33.1 µM); MIC [13]: > 100 µg/mL; MIC [14]: > 100 µg/mL; MIC [15]: 0.78 µg/mL (≈ 1.03 µM); MIC [16]: > 100 µg/mL; MIC [17]: 0.78 µg/mL (≈ 1.03 µM); MIC [18]: 0.02 µg/mL (≈ 0.0265 µM); MIC [19]: 0.02 µg/mL (≈ 0.0265 µM); MIC [20]: 0.78 µg/mL (≈ 1.03 µM); MIC [21]: > 100 µg/mL; MIC (CANDIDA ALBICANS CCH 442): > 100 µg/mL; MIC (H. Influenza Dill AMP R): 4 µg/mL (≈ 5.29 µM); MIC [22]: > 100 µg/mL; MIC (ESCHERICHIA COLI SS): 0.78 µg/mL (≈ 1.03 µM); MIC [23]: 100 µg/mL (≈ 132 µM)
